In brackets after ≈: the same amount, converted by molar mass. Like-named read-outs stand apart in the source and are kept apart here.
Legend:
[1] = tested on: herpes simplex virus type 2 (HSV-2); assay: HSV-2 infection in mice, survival (Experimental Example 6); assay type: in vivo, Balb/c mice; conditions: for Means survival time / Survivors/Total: once a day for 10 days, monitored 20 days
Procedure: Activity of the sample (compound No. 2) against herpes simplex virus type 2 (HSV-2) infection was examined in mice. Balb/c mice (6 week-old, male) were inoculated intraperitoneally (l.p.) with HSV-2 strain 186 at 4.8 x 10^5 PFU/0.2 ml per mouse. The sample was formulated in saline and applied either orally (p.o.) or i.p. at the indicated doses once a day for 10 days, starting 6 hrs after virus infection. The mortality was monitored for 20 days after inoculation. Efficacy of the sample was indicated as extension of survival time and number of survivors. Aciclovir (ACV: commercialized antiviral agent) was used as reference sample.

[2] = tested on: human leukemia P388 cell; assay: Growth inhibition of P388 cells, cell counting (Method 6); assay type: cell-based; conditions: read-out: IC50(µg/ml) P388
Procedure: (§1) Carcinostatic activities on human cervical cancer HeLa S3 cell, mouse leukemia L1210 cell and […] cell were examined by the following methods. Cells of P388 and L1210 were spread onto a 24-well plate. After adding a sample, it was cultured at 37°C for 48 hours in 5% CO2 incubator. After the culture, the number of cells was counted by means of […]. The growth inhibitory rate in the treated group, based on that in the control group, was calculated from the following equation, from which 50% inhibitory concentration (CI50, micrograms/ml) was determined: The results obtained are as shown in Table 3. Growth inhibitory rate (%) = [1-(NT -NO )/NC -NO ] x 100 [formula] wherein NT = Cell number in treated group NO = cell number at the start of culture NC = Cell number in control group Table 3

[3] = tested on: simple Herpes 1 type virus (HSV-I); assay: Plaque formation inhibition, HSV-I on Vero cell monolayer (Method 1); assay type: cell-based; conditions: read-out: IC50(µg/ml) HSV-1
Procedure: (§2) Antiviral activities against simple Herpes 1 type virus (HSV-I) and simple Herpes 2 type virus (HSV-II), both belonging to DNA virus, were examined by the following methods.
(§3) A 6-well multi-plate having a single layer of Vero cell (derived from the kidney cell of African Green-Monkey was infected with 100 to 150 PFU (plaque forming units) of virus. After adsorption at 37°C for one hour, a layer of agar medium (Eagle MEM medium containing 1.5% of agar) containing a varied concentration of sample was superposed thereon, and a cultivation was carried out at 37°C for 48 hours in 5% (v/v) carbon dioxide incubator. The formation of plaque was measured, from which 50% inhibitory value (IC50) was determined.

[4] = tested on: simple Herpes 2 type virus (HSV-II); assay: Plaque formation inhibition, HSV-II on Vero cell monolayer (Method 1); assay type: cell-based; conditions: read-out: IC50(µg/ml) HSV-2
Procedure: as §2, §3

[5] = tested on: human Cytomegalovirus (HCMV); assay: Anti-HCMV plaque formation inhibition on human embryonal fibroblast (Method 2); assay type: cell-based; conditions: read-out: IC50(µg/ml) HCMV
Procedure: Antiviral activity against human Cytomegalovirus (HCMV) belonging to DNA virus was examined by the following method.
Anti-HCMV activity was determined in the following manner. Thus, a 35 mm dish having a single layer of human embryonal fibroblast was infected with 100 PFU of HCMV (A0169 strain). After adsorption for one hour, one layer of a medium (0.5% agarose, 2% fetal calf serum) containing a varied concentration of sample compound was superposed thereon, and cultivation was carried out at 37°C for 10 days in 5% (v/v) carbon dioxide incubator. Then, formation of plaque was measured, from which 50% inhibitory value (IC50) was determined.

[6] = tested on: B hepatitis virus (HBV); assay: Anti-HBV activity in HB611 liver cells, HBV DNA by Southern method (Method 3); assay type: cell-based; conditions: read-out: IC50(µg/ml) HBV
Procedure: Antiviral activity against B hepatitis virus (HBV) belonging to DNA virus was examined by the following method.
According to the procedure of Dulbecco (Proc. Natl. Acad. Sci. USA, 84, 444 (1987)), cultured liver cell strain HB611 producing and releasing active B hepatitis virus was cultured in a modified Eagle medium (GIBCO) at 37°C at a CO2 concentration of 5% in the presence of 10% fetal calf serum, 200 micrograms/ml of G418, 100 µ/ml of Penicillin and 100 µ/ml of Streptomycin. The culture fluid was inoculated onto a 6-well plate at a rate of 5 x 10^4 cells/well (35 mm). One or two days after, 50% confluence was reached, when a predetermined quantity of sample compound was added and cultivation was continued. Thereafter, cultivation was continued for 15 days, while refreshing the medium with a fresh medium containing the same concentrations of the chemicals at intervals of 3 days. Then, the medium was removed, and the cell bodies were treated with 0.5 ml of Lysis buffer (10 mM Tris HCl, pH 7.8/5 mM Na2EDTA, 1% SDS/0.1 mg/ml […]) at 37°C for one hour and dissolved thereinto. The DNA thus obtained was purified by RNase treatment, phenolchloroform treatment and ethanol precipitation.
Then, 5 micrograms of DNA was subjected to Hind III treatment, and DNA pattern was analyzed according to Southern method by using ^32P-labelled B hepatitis virus DNA as a probe.

[7] = tested on: Human Immunodeficiency Virus (HIV); assay: Anti-HIV activity in MT-4 cells, virus antigen by fluorescent antibody method (Method 4); assay type: cell-based; conditions: Human immunodeficiency virus 1, MT4, 96 h, read-out: IC50(µg/ml) HIV
Procedure: Antiviral activity against Human Immunodeficiency Virus (HIV) belonging to […] was examined by the following method.
MT-4 cell (about 50,000 cells/ml) was introduced into a 24-well tray, to which was added […] of a solution containing a predetermined quantity of sample compound. Culture was carried out at 37°C for 2 hours in 5% (v/v) carbon dioxide incubator. Then, 10^3 to 10^4 infection units of HIV was added and cultured for 4 days, after which a part of the culture fluid was applied onto a slide glass and immobilized with acetone and development of virus antigen was tested by fluorescent antibody method.
As the primary antibody of fluorescent antibody method, serum of AIDS patient was used. As the secondary antibody, […] was used.

[8] = tested on: human cervical cancer HeLa S3 cell; assay: Growth inhibition of HeLa S3 cells, Methylene Blue dyeing (Method 5); assay type: cell-based; conditions: read-out: IC50(µg/ml) HeLaS3
Procedure: Carcinostatic activities on human cervical cancer HeLa S3 cell, mouse leukemia L1210 cell and […] cell were examined by the following methods. HeLa S3 cell was made into a suspension (7.5 x 10^3 cells/ml). The suspension was spread on a 96-well flat plate at a rate of 0.2 ml/well. After culturing it at 37°C for 24 hours in 5% carbon dioxide incubator, 10 microliters of a sample was added and cultivation was carried out for 72 hours. Then, culture fluid was taken out from each well and immobilized with methanol, after which 0.1 ml/well of 0.05% Methylene Blue/10 mM-Tris-HCl (pH 8.5) solution was added and dyeing was carried out at room temperature for 30 minutes. The dyed fluid in each well was withdrawn by means of aspirator and three times washed with pure water. Then, 3% HCl was added at a rate of 0.2 ml/well and the resulting mixture was sealed and allowed to stand at room temperature for about 24 hours, to extract pigment from the cells. Optical absorbance of each well at 660 nm was measured by means of […] Microplate Reader, from which growth inhibitory rate (%) at varied concentration was calculated according to the following equation. […] Growth inhibitory rate (%) = (1 - A1 /A0 ) x 100 [formula] wherein A1 = Absorbance in the treated group, A0 = Absorbance in the control group.

[9] = tested on: mouse leukemia L1210 cell; assay: Growth inhibition of L1210 cells, cell counting (Method 6); assay type: cell-based; conditions: read-out: IC50(µg/ml) L1210
Procedure: as §1

With Nc1nc2c(ncn2COCCO)c(=O)[nH]1 [ACV, Aciclovir, reference compound] the Means survival time ([1]; i.p., 12.5 mg/kg/day) was 11.1 days, the Survivors/Total ([1]; i.p., 12.5 mg/kg/day) was 1/10 and the Means survival time ([1]; i.p., 25 mg/kg/day) was 12.7 days. For the same molecule, the Survivors/Total ([1]; i.p., 25 mg/kg/day) was 1/10, the Means survival time ([1]; i.p., 50 mg/kg/day) was 16.1 days and the Survivors/Total ([1]; i.p., 50 mg/kg/day) was 5/10. The Means survival time ([1]; i.p., 100 mg/kg/day) was 5.4 days, the Survivors/Total ([1]; i.p., 100 mg/kg/day) was 2/10 and the Means survival time ([1]; p.o., 12.5 mg/kg/day) was 9.3 days. For the same molecule, the Survivors/Total ([1]; p.o., 12.5 mg/kg/day) was 0/10, the Means survival time ([1]; p.o., 25 mg/kg/day) was 11.1 days and the Survivors/Total ([1]; p.o., 25 mg/kg/day) was 0/10. The Means survival time ([1]; p.o., 50 mg/kg/day) was 14.8 days, the Survivors/Total ([1]; p.o., 50 mg/kg/day) was 4/10 and the Means survival time ([1]; p.o., 100 mg/kg/day) was 14.3 days. For the same molecule, the Survivors/Total ([1]; p.o., 100 mg/kg/day) was 2/10.

Nc1nc2c(ncn2[C@@H]2C[C@H](CO)[C@H]2CO)c(=O)[nH]1 [Compound 2, 9-[(1R,2R,3S)-2,3-Bis(hydroxymethyl)cyclobutane-1-yl] -guanine] was tested, and the IC50 ([2]; P388, 48 h) was 1.6 µg/mL (≈ 6.03 µM), the IC50 ([3]; Human alphaherpesvirus 1, Vero, 48 h) was 0.03 µg/mL (≈ 0.113 µM) and the IC50 ([4]; Human alphaherpesvirus 2, Vero, 48 h) was 0.13 µg/mL (≈ 0.49 µM). The IC50 ([5]; Human betaherpesvirus 5, Fibroblast, 240 h) was 0.4 µg/mL (≈ 1.51 µM), the Means survival time ([1]; i.p., 1.25 mg/kg/day) was 19.8 days and the Survivors/Total ([1]; i.p., 1.25 mg/kg/day) was 7/10. For the same molecule, the Means survival time ([1]; i.p., 2.5 mg/kg/day) was 18.9 days, the Survivors/Total ([1]; i.p., 2.5 mg/kg/day) was 9/10 and the Means survival time ([1]; i.p., 5 mg/kg/day) was 20.0 days. The Survivors/Total ([1]; i.p., 5 mg/kg/day) was 10/10, the Means survival time ([1]; i.p., 10 mg/kg/day) was 20.0 days and the Survivors/Total ([1]; i.p., 10 mg/kg/day) was 10/10. For the same molecule, the Means survival time ([1]; i.p., 20 mg/kg/day) was 20.0 days, the Survivors/Total ([1]; i.p., 20 mg/kg/day) was 10/10 and the “reducing mortality rate of mice infected with HSV-2” value ([1]; irrespective of administration routes (i.p., p.o.), 1.25 to 20 mg/kg per day) was “highly effective”. The Means survival time ([1]; p.o., 1.25 mg/kg/day) was 12.4 days, the Survivors/Total ([1]; p.o., 1.25 mg/kg/day) was 2/10 and the Means survival time ([1]; p.o., 2.5 mg/kg/day) was 14.7 days. For the same molecule, the Survivors/Total ([1]; p.o., 2.5 mg/kg/day) was 4/10, the Means survival time ([1]; p.o., 5 mg/kg/day) was 18.9 days and the Survivors/Total ([1]; p.o., 5 mg/kg/day) was 8/10. The Means survival time ([1]; p.o., 10 mg/kg/day) was 19.8 days, the Survivors/Total ([1]; p.o., 10 mg/kg/day) was 9/10 and the Means survival time ([1]; p.o., 20 mg/kg/day) was 19.7 days. For the same molecule, the Survivors/Total ([1]; p.o., 20 mg/kg/day) was 9/10, the IC50 ([6]; HB611, 360 h) was 0.86 µg/mL (≈ 3.24 µM) and the IC50 [7] was 0.3 µg/mL (≈ 1.13 µM). It also gave an IC50 ([8]; HeLa S3, 72 h) of 19 µg/mL (≈ 71.6 µM) and an IC50 ([9]; L1210, 48 h) of 8.1 µg/mL (≈ 30.5 µM).

Molecule Nc1ncnc2c1ncn2[C@@H]1C[C@H](CO)[C@H]1CO [Compound 1, 9-[(1R,2R,3S)-2,3-Bis(hydroxymethyl)cyclobutane-1-yl] -adenine] has an IC50 ([2]; P388, 48 hours, growth inhibition) of 0.58 µg/mL (≈ 2.33 µM), an IC50 ([3]; Human alphaherpesvirus 1, Vero cell, plaque formation, 48 hours) of 7.3 µg/mL (≈ 29.3 µM) and an IC50 ([4]; Human alphaherpesvirus 2, Vero cell, plaque formation, 48 hours) of 8.9 µg/mL (≈ 35.7 µM). It also gave an IC50 ([5]; Human betaherpesvirus 5, 240 h, human embryonal fibroblast, A0169 strain, plaque formation, 10 days) of 12 µg/mL (≈ 48.1 µM), an IC50 ([6]; 360 h, HB611 cells, 15 days, HBV DNA) of 0.024 µg/mL (≈ 0.0963 µM) and an IC50 ([7]; MT-4 cell, cultured for 4 days, virus antigen) of 0.03 µg/mL (≈ 0.12 µM). It also gave an IC50 ([8]; HeLa S3, 72 hours, growth inhibition) of 14 µg/mL (≈ 56.2 µM) and an IC50 ([9]; L1210, 48 hours, growth inhibition) of 1.1 µg/mL (≈ 4.41 µM).

Reference: patent EP0358154B1, “Novel cyclobutane derivative and process for producing same” (NIPPON KAYAKU KABUSHIKI KAISHA, priority 1988, dated 1990)
